In patent US9131687B2, “Roseobacticides and uses thereof” (PRESIDENT AND FELLOWS OF HARVARD COLLEGE, priority 2010, dated 2015):
Several values for one entry are separate records, joined by “and”; a condition that tells them apart may be missing. Identical values can stand only once. Like-named read-outs stand apart in the source and are kept apart here.

Assays:
[1] = tested on: panel of marine bacteria and B. subtilis 3610; experiment: Antibacterial assay against the whole panel of test strains (96 well plate, OD650); type: cell-based; conditions: 10 μL of 0.5 mg/mL or 0.25 mg/mL, 24 hours, 30° C., all test strains
Method: (§1) Selected bacterial strains (see Table 4) were tested against Roseobacticide A using the disc diffusion assay (Gauvreau, D. & Waring, M., 1982, J. Appl. Microbiol. Biotechnol. 115:104-110). Overnight cultures of each test strain in YTSS were diluted 1000-fold into YTSS containing 0.7% agar and poured into standard Petri dish plates. Blank paper discs (8 mm, Fisher Scientific) were loaded with 50 μg of phaeobactin A and placed on top of the agar. The plates were incubated at 30° C. for 12-24 h and the presence or absence of an inhibition zone was monitored visually. Ampicillin (0.5 μg) and MeOH were used as positive and negative controls, respectively. In addition, the assay was carried out in 96 well plates according to the 2003 guidelines of the Clinical and Laboratory Standards Institute (CLSI, formerly NCCLS) with minor changes.
Roseobacters were grown and tested in YTSS medium, B. subtilis 3610 in LB, and P. tunicate D2 in Marine Broth (Difco 2216). […] The plate was incubated without shaking for 24 hours at 30° C., and the OD650 nm determined on a Molecular Devices 96 well plate reader. […] The OD650 nm for the wells containing Roseobacticide A in all each cases was between 80-100% of the value determined for the respective negative controls.

algae = experiment: Algicidal activity (lysis of algae), summary over algae; type: cell-based; conditions: read-out: LC50 range, algicidal activity
Method: (§2) The algaecidal effect of Roseobacticide A and B was tested against five axenic microalgae (the Prymnesiophytes Emiliana huxleyi (CCMP372) and Isochrysis sp. (CCMP468), the green alga Tetraselmis suecica (CCMP908), the diatom Chaetoceros muelleri (CCMP1318) and the cryptomonad Rhodomonas salina (CCMP1319)). All strains were grown on L1 media except for CCMP1318, which was grown in L1+Si (Guillard, R. R. L. & Hargraves, P. E., 1993, Phycologia 32: 234-236). All strains were maintained at 24° C. under 12 h:12 h light:dark illumination.
(§3) To perform assays, algal cultures were diluted 1:1 with the medium they were grown in and then 1 mL aliquots were placed in a 48 well microtitre plate and treated with 0.01-0.000000001 mg/mL of Roseobacticide A or B, or alternatively with MeOH solvent, or medium (as controls) and incubated for 24 h at 24° C. under 12 h: 12 h light:dark illumination. Each treatment was monitored microscopically at 2, 12 and 24 h. Cell counts were determined by flow cytometry and compared to the solvent control.
Flow cytometry. […] Cells were then frozen in an ethanol dry ice bath and stored at −80° C. until analyzed. Cell concentrations were measured with an EPICS flow cytometer using red fluorescence and forward angle light scattering properties to identify the cells as previously described (Cavender-Bares, K. K., et al., 1998, Limnol. Oceanogr. 43:1383-1388).

[2] = tested on: Silicibacter pomeroyi DSS3; experiment: IC50 of Roseobacticide A against selected bacterial strains (disc diffusion / 96 well plate); type: cell-based; conditions: Ruegeria pomeroyi
Method: as §1
(§4) Roseobacters were grown and tested in YTSS medium, B. subtilis 3610 in LB, and P. tunicate D2 in Marine Broth (Difco 2216). Inocula for each test organism were prepared by suspending a colony from an agar plate into 5 mL of YTSS, LB, or Marine Broth in 15 mL bacterial culture tubes. These were grown overnight, and then adjusted to 1×10^8 cells/mL. These cell suspensions were used as inocula for 96 well plate assays: 10 μL of inoculum, corresponding to 1×10^6 cells was added to 90 μL of the appropriate medium and supplemented with 10 μL medium (negative control), 10 μL of MeOH (negative control), 10 μL of 0.5 mg/mL, or 0.25 mg/mL of Roseobacticide A. The assay against each test strain was carried out in duplicate. The plate was incubated without shaking for 24 hours at 30° C., and the OD650 nm determined on a Molecular Devices 96 well plate reader. […] The OD650 nm for the wells containing Roseobacticide A in all each cases was between 80-100% of the value determined for the respective negative controls.

Reugeria sp. R11 = experiment: as above; type: cell-based
Method: as §1, §4

[3] = tested on: Phaeobacter gallaeciensis BS107; experiment: as above; type: cell-based
Method: as §1, §4

Bacillus subtilis 3610 = experiment: as above; type: cell-based
Method: as §1, §4

Vibrio anguillarum = experiment: as above; type: cell-based
Method: as §1, §4

[4] = tested on: Phaeobacter gallaeciensis 2.10; experiment: as above; type: cell-based
Method: as §1, §4

Silicibacter sp. TM1040 = experiment: as above; type: cell-based
Method: as §1, §4

[5] = tested on: Pseudoalteromonas tunicata D2; experiment: as above; type: cell-based
Method: as §1, §4

[6] = tested on: Rhodomonas salina CCMP1319; experiment: Algaecidal assay, cell counts by flow cytometry and microscopy; type: cell-based; conditions: for IC50: Rhodomonas salina CCMP1319, 24 h, flow cytometry
Method: as §2, §3
(§5) Flow cytometry. For flow cytometry counts, duplicate 0.5 ml samples were fixed with 0.125% (vol/vol) glutaraldehyde in the dark for 10 min. Cells were then frozen in an ethanol dry ice bath and stored at −80° C. until analyzed. Cell concentrations were measured with an EPICS flow cytometer using red fluorescence and forward angle light scattering properties to identify the cells as previously described (Cavender-Bares, K. K., et al., 1998, Limnol. Oceanogr. 43:1383-1388).

[7] = tested on: Chaetoceros muelleri CCMP1318; experiment: as above; type: cell-based
Method: as §2, §3, §5

[8] = tested on: Tetraselmis suecica CCMP908; experiment: as above; type: cell-based; conditions: Tetraselmis suecica CCMP908, 24 h, flow cytometry
Method: as §2, §3, §5

Emiliana huxleyi CCMP372 = experiment: as above; type: cell-based; conditions: for IC50: Emiliana huxleyi CCMP372, 24 h, flow cytometry; for algal cell population damaged yet intact: lowest Roseobacticide concentration tested, microscopy; for effect of incubation on E. huxleyi cells: microscopy at 12 and 24 h
Method: as §2, §3, §5

Isochrysis sp. CCMP468 = experiment: as above; type: cell-based; conditions: Isochrysis sp. CCMP468, 24 h, flow cytometry
Method: as §2, §3, §5

P. gallaeciensis BS107 = experiment: Elicitation of roseobacticide production, HPLC-MS; type: cell-based, Phaeobacter gallaeciensis BS107; conditions: for secondary metabolite production by HPLC-MS: P. gallaeciensis BS107 incubated with elicitor; for EC50: Phaeobacter gallaeciensis
Method: (§6) Roseobacter (Phaeobacter gallaeciensis BS107, Ruegeria sp. R11 and Silicibacter pomeroyi DSS3) and other marine strains (see Table 4) were streaked out from frozen stocks and maintained on Marine Broth (Difco 2216) supplemented with 1.5% agar and incubated at 30° C. for two days. A 50 mL test tube containing 5 mL of ½ strength yeast extract, tryptone and sea salt medium (YTSS, per L: 2 g yeast extract, 1.25 g tryptone, 20 g sea salt) was inoculated with each strain and grown overnight at 30° C. on a horizontal rotating drum fermenter. A 500 mL Erlenmeyer flask containing 50 mL of YTSS medium and 0-3 mM pCA was inoculated with 0.5 mL of the overnight culture and incubated at 160 rpm and 30° C. for 3 d. After 3 d, each culture was extracted once with an equal volume of ethyl acetate, dried in vacuo, resuspended in methanol and analyzed by HPLC-MS as described above.
Preparative-scale (2-8 L) cultivation of P. gallaeciensis BS107 (or other roseobacter strains) was carried out in half-strength yeast extract-tryptonesea salt (YTSS) medium, which consists of (per L): 20 g Sigma sea salt, 2 g yeast extract, and 1.25 g tryptone. P. gallaeciensis BS107 (or other roseobacter strains) were streaked out from frozen culture stocks and maintained on Marine Broth agar plates (Difco 2216) at 30° C. Overnight cultures were initiated by inoculating 5 mL YTSS medium in 15 mL culture tubes and shaking these overnight at 250 rpm and 30° C. A 0.5 L Erlenmeyer flask containing 50 mL YTSS medium was inoculated with 0.5 mL of the overnight culture and grown for 12-18 h at 30° C. and 160 rpm. Large 4 L Erlenmeyer flasks, each containing 0.4 L YTSS medium, were inoculated with 4 mL of the overnight culture and supplemented with 1 mM of each of the elicitors (14-18). The cultures were grown for 3 d at 30° C. and roseobacticides purified as described below.
Eight to ten 0.25 L Erlenmeyer flasks each containing 25 mL of YTSS medium and a range of elicitor concentrations (between 0 and 1.2 mM) were inoculated with 0.25 mL of an overnight P. gallaeciensis BS107 culture prepared as described above. These were grown at 30° C. and 160 rpm. After 3 d, each culture was extracted twice with 25 mL of EtOAc. The organic phase was combined, dried over Na2SO4, and subsequently dried in vacuo. The residue was resuspended in 0.3 mL MeOH and analyzed by HPLC-MS as described above. The amount of roseobacticide B (7) produced, which was quantified by massion extraction ([M+H]^+=269), was plotted against the concentration of the elicitor. The maximal amount of 7 was normalized to 100%, and the EC50, the elicitor concentration where production of 7 was half-maximal, was obtained by fitting the data to equation 1, where Bmax and Bmin are the maximal (˜100%) and minimal (˜0%) amounts of 7 and p is a Hill slope parameter to account for variations in the slope. Bmax and Bmin were allowed to vary to obtain the optimal fit as judged by the R^2 correlation value.

P. gallaeciensis = experiment: Growth (OD650 nm) of P. gallaeciensis cultivated with pCA; type: cell-based, Phaeobacter gallaeciensis; conditions: 1 mM pCA, YTSS medium, 3 d, triplicate
Method: as §6
The profiles shown in FIG. 1B have not been corrected for the lower cell density observed in the presence of pCA.

S. pomeroyi DSS-3 = experiment: pCA-dependent changes of HPLC-MS profile; type: cell-based, Silicibacter pomeroyi DSS-3; conditions: 0.1-3 mM pCA
Method: as §6
(§7) The inventors cultured three roseobacter strains—S. pomeroyi DSS-3, Ruegeria sp. R11, and P. gallaeciensis BS107—in the presence of varying pCA concentrations (0.1-3 mM). At various time points, the cultures were extracted with ethyl acetate and analyzed by HPLC-MS. The HPLC-MS profiles from S. pomeroyi and Ruegeria sp. […] In the absence of pCA, these compounds were not produced by P. gallaeciensis under any of the conditions that were investigated.

Ruegeria sp. R11 = experiment: pCA-dependent changes of HPLC-MS profile; type: cell-based; conditions: 0.1-3 mM pCA
Method: as §6, §7

[9] = BS107, 72 h, 3 d culture, HPLC-MS ion extraction, read-out: EC50, elicitor concentration where production of roseobacticide B (7) is half-maximal

Compound: CSc1cccc2c(-c3ccc(O)cc3)c(=O)oc-2c1 [Roseobacticide A]
- OD650 nm relative to the respective negative controls [1]: 80-100%
- CC50 (algae): 0.1 to 35 µM
- IC50 [2]: > 160 µM
- IC50 (Reugeria sp. R11): > 160 µM
- IC50 [3]: > 160 µM
- IC50 (Bacillus subtilis 3610): > 160 µM
- IC50 (Vibrio anguillarum): > 160 µM
- IC50 [4]: > 160 µM
- IC50 (Silicibacter sp. TM1040): > 160 µM
- IC50 [5]: > 160 µM
- IC50 [6]: ≥ 0.1 µM
- IC50 ([6]; Rhodomonas salina, 24 h): 0.1 µM
- susceptibility of the R. salina population ([6]; dose response, micrographs): Only a subpopulation appears to be susceptible
- effect on C. muelleri cell shape ([7]; 3.5 μM, 24 h): major morphological changes
- IC50 ([7]; Chaetoceros muelleri CCMP1318, 24 h, flow cytometry): > 35 µM
- IC50 [8]: > 35 µM
- IC50 (Emiliana huxleyi CCMP372): ≥ 2.2 µM
- algal cell population damaged yet intact (Emiliana huxleyi CCMP372): 20%
- effect of incubation on E. huxleyi cells (Emiliana huxleyi CCMP372): cell lysis after 24 h, with cellular damage visible after 12 h
- IC50 (Isochrysis sp. CCMP468): > 35 µM

Compound: CSc1ccccc2c(-c3ccccc3)c(=O)oc1-2 [Roseobacticide B]
- IC50 (Emiliana huxleyi CCMP372): 0.19 µM and ≥ 0.19 µM
- algal cell population damaged yet intact (Emiliana huxleyi CCMP372): 48%
- effect of incubation on E. huxleyi cells (Emiliana huxleyi CCMP372): cell lysis after 24 h, with cellular damage visible after 12 h

Compound: CSc1cccc2c(-c3c[nH]c4ccccc34)c(=O)oc-2c1 [Roseobacticide C]
- initial bioassays against E. huxleyi (Emiliana huxleyi CCMP372): potent antialgal compounds

Compound: COc1cc(/C=C/C(=O)O)cc(OC)c1O [Roseobacticide 15, sinapic acid]
- secondary metabolite production by HPLC-MS (P. gallaeciensis BS107): production of a variety of new metabolites
- EC50 (P. gallaeciensis BS107; [9]): 430 ± 30 µM

Compound: COc1cc(/C=C/C(=O)O)ccc1O [Roseobacticide 16, ferulic acid]
- secondary metabolite production by HPLC-MS (P. gallaeciensis BS107): production of a variety of new metabolites
- EC50 (P. gallaeciensis BS107; [9]): 160 ± 20 µM

Compound: CSSc1cccc2c(-c3ccccc3)c(=O)oc-2c1 [Roseobacticide E]
- initial bioassays against E. huxleyi (Emiliana huxleyi CCMP372): potent antialgal compounds

Compound: O=C(O)/C=C/c1ccc(O)cc1 [pCA, p-coumaric acid]
- OD650 nm lower than cultures without pCA (P. gallaeciensis): 17±8%
- changes of HPLC-MS profile (S. pomeroyi DSS-3): no significant pCA-dependent changes
- changes of HPLC-MS profile (Ruegeria sp. R11): no significant pCA-dependent changes
- secondary metabolite production by HPLC-MS (P. gallaeciensis BS107): stimulated the production of a family of compounds
- secondary metabolite production by HPLC-MS (P. gallaeciensis BS107; listed as 14): production of a variety of new metabolites
- EC50 (P. gallaeciensis BS107; [9]): 790 ± 30 µM
- EC50 (P. gallaeciensis BS107; BS107, FIG. 1C, average of two measurements, read-out: EC50, dose-response of (6) as a function of [pCA]): 790 ± 30 µM
